Data set [1] has as its system Human immunodeficiency virus 1. Description: Antiviral activity against HIV1 3B replication in human C8166 cells at 0.8 ug/ml after 5 to 7 days by MTT-formazan method. The data set is classed as functional. In general terms: Formazan colour is commonly taken as a measure of viable cells.
In data set [2] the target is Human immunodeficiency virus type 1 reverse transcriptase (Human immunodeficiency virus 1) (UniProt Q72547). Description: Inhibition of HIV1 reverse transcriptase assessed as [3H]dTTP incorporation up to 50 ug/ml by liquid scintillation counting.
Data set [3] is described as follows: Cytotoxicity against human HeLa Ohio cells assessed as maximum non-toxic dose after 24 hrs by neutral red staining. The note with it: read-out: Activity. The data set is classed as cell-based.
Data set [4] relates to rhinovirus A1B. Description: Antiviral activity against HRV1B replication in human Hela Ohio cells assessed as virus-induced cytopathic effect at 20 ug/ml after 24 hrs at 33 degC by light microscopy. The data set is classed as functional, Human rhinovirus 1B.
A short description of data set [5]: Cytotoxicity against human HeLaS3 cells assessed as maximum non-toxic dose after 24 hrs by neutral red staining. The data set is classed as cell-based, HeLa S3. The note with it: read-out: Activity.
Data set [6] concerns Sindbis virus. Description: Antiviral activity against Sindbis virus replication in human HelaS3 cells assessed as virus-induced cytopathic effect at 20 ug/ml after 24 hrs at 37 degC by light microscopy. The data set is classed as functional.
A short description of data set [7]: Cytotoxicity against human C8166 cells after 5 to 7 days by MTT-formazan method. The data set is classed as cell-based. The note with it: read-out: TC50 (the source's name).
In data set [8] the test system is Human immunodeficiency virus 1. Description: Antiviral activity against HIV1 3B replication in human C8166 cells at 4 ug/ml after 5 to 7 days by MTT-formazan method. The data set is classed as functional.
For data set [9], the system named is Human immunodeficiency virus 1. Description: Antiviral activity against HIV1 3B replication in human C8166 cells at 100 ug/ml after 5 to 7 days by MTT-formazan method. The data set is classed as functional.
In data set [10] the test system is Human immunodeficiency virus 1. Description: Antiviral activity against HIV1 3B replication in human C8166 cells at 20 ug/ml after 5 to 7 days by MTT-formazan method. The data set is classed as functional.
For data set [11], the system named is Human immunodeficiency virus 1. Description: Antiviral activity against HIV1 3B replication in human C8166 cells at 40 ug/ml after 5 to 7 days by MTT-formazan method. The data set is classed as functional.
Data set [12] has as its system Human immunodeficiency virus 1. Description: Antiviral activity against HIV1 3B replication in human C8166 cells at 8 ug/ml after 5 to 7 days by MTT-formazan method. The data set is classed as functional.
Data set [13] concerns rhinovirus A1B. Description: Antiviral activity against HRV1B replication in human Hela Ohio cells assessed as virus-induced cytopathic effect at 50 ug/ml after 24 hrs at 33 degC by light microscopy. The data set is classed as functional, Human rhinovirus 1B. (Protection from cytopathic effect is a common read-out in antiviral testing.)
The subject of data set [14] is Sindbis virus. Description: Antiviral activity against Sindbis virus replication in human HelaS3 cells assessed as virus-induced cytopathic effect at 50 ug/ml after 24 hrs at 37 degC by light microscopy. The data set is classed as functional.
For data set [15], the system named is Human immunodeficiency virus 1. Description: Antiviral activity against HIV1 3B replication in human C8166 cells at 100 uM after 5 to 7 days by MTT-formazan method. The data set is classed as functional.
Data set [16] has as its system Human immunodeficiency virus 1. Description: Antiviral activity against HIV1 3B replication in human C8166 cells at 0.016 ug/ml after 5 to 7 days by MTT-formazan method. The data set is classed as functional.
Data set [17] concerns Sindbis virus. Description: Antiviral activity against Sindbis virus replication in human HelaS3 cells assessed as virus-induced cytopathic effect at 4 ug/ml after 24 hrs at 37 degC by light microscopy. The data set is classed as functional.
The subject of data set [18] is rhinovirus A1B. Description: Antiviral activity against HRV1B replication in human Hela Ohio cells assessed as inhibition of virus-induced cytopathic effect at 4 ug/ml after 24 hrs at 33 degC by light microscopy. The data set is classed as functional, Human rhinovirus 1B. The following applies: Rhinovirus A.
Data set [19] concerns rhinovirus A1B. Description: Antiviral activity against HRV1B replication in human Hela Ohio cells assessed as inhibition of virus-induced cytopathic effect at 0.8 ug/ml after 24 hrs at 33 degC by light microscopy. The data set is classed as functional, organism-based. The note with it: Human rhinovirus 1B.

Molecules are shown by their SMILES. Converted amounts (≈) assume the structure as drawn. The source made the active and inactive calls. The rule behind the calls is not given here. Bounds are passed on as bounds.

For `C[C@@H]1CC[C@]2(C(=O)O)CC[C@]3(C)C(=CC[C@@H]4[C@@]5(C)CC[C@H](O)C(C)(C)[C@@H]5[C@H](O)C[C@]43C)[C@@H]2[C@]1(C)O`, the Activity in [1] stood at 1%; in data set [4], 100%; in data set [6] it was 100%; in data set [8], 0%. Besides, the outcome in data set [2] was inactive. For the same compound, the MNTC at 24 h in [3] and in [5] was 20 µg/mL in each case. Also, the CC50 in data set [7] came out at 2 µg/mL (≈ 4.09 µM).
With `C[C@@H]1CC[C@]2(C(=O)O)CC[C@]3(C)C(=CC[C@@H]4[C@@]5(C)CC[C@H](OC(=O)/C=C/c6ccc(O)cc6)[C@@](C)(CO)[C@@H]5CC[C@]43C)[C@@H]2[C@]1(C)O`, the outcome in [2] was inactive. The MNTC at 24 h in data set [3] and in [5] was 20 µg/mL throughout. The Activity in [4] amounted to 100%; in data set [6], 100%; in data set [9], 0%; in data set [10], 0%. The CC50 in [7] was 30 µg/mL (≈ 47.3 µM).
Turning to `C[C@@H]1CC[C@]2(C(=O)O)CC[C@]3(C)C(=CC[C@@H]4[C@@]5(C)C[C@@H](O)[C@H](O)[C@@](C)(CO)[C@@H]5CC[C@]43C)[C@@H]2[C@]1(C)O`, the Activity in data set [11] amounted to 0%; in [12], 1%; in [13], 100%; in [14] it was 100%. In addition, in data set [2], the outcome was inactive. In addition, the MNTC at 24 h in [3] and in [5] was 50 µg/mL in each case. Also, the CC50 in [7] was determined as 20 µg/mL (≈ 39.6 µM).
For the compound `Cc1cn([C@H]2C[C@H](N=[N+]=[N-])[C@@H](CO)O2)c(=O)[nH]c1=O` [ZIDOVUDINE], the values for the Activity in data set [15] and in data set [16] were 100% and 49%, respectively. In addition, the CC50 in data set [7] is over 1000 µg/mL.
For the compound `C[C@@H]1CC[C@]2(C(=O)O)CC[C@]3(C)C(=CC[C@@H]4[C@@]5(C)C[C@@H](O)[C@H](O)[C@@](C)(COC(=O)/C=C/c6ccc(O)cc6)[C@@H]5CC[C@]43C)[C@@H]2[C@]1(C)O`, the outcome in data set [2] was inactive. The MNTC at 24 h in [3] is 50 µg/mL; in data set [5], 20 µg/mL. Moreover, the Activity in data set [13] stood at 100%; in data set [6], 100%; in data set [9], 0%; in data set [10], 0%. Also, in data set [7], the CC50 was found to be 30 µg/mL (≈ 46.1 µM).
In general, inhibition refers to the change of the read-out against control, counted positive when it falls. Take `C[C@@H]1CC[C@]2(C(=O)O)CC[C@]3(C)C(=CC[C@@H]4[C@@]5(C)C[C@@H](O)[C@H](OC(=O)/C=C/c6ccc(O)c(O)c6)C(C)(C)[C@@H]5CC[C@]43C)[C@@H]2[C@]1(C)O`: the outcome in [2] and in data set [19] was inactive. The MNTC at 24 h is 20 µg/mL in [3] and 4 µg/mL in data set [5]. Also, the Activity in [4] was 50%; in data set [17] it was 100%; in [8], 1%. Further, the inhibition at 4 µg/mL in data set [18] is under 25%. Also, the CC50 in data set [7] is 10 µg/mL (≈ 15.4 µM).
For the compound `C[C@@H]1CC[C@]2(C(=O)O)CC[C@]3(C)C(=CC[C@@H]4[C@@]5(C)C[C@@H](O)[C@H](O)[C@@](C)(COC(=O)/C=C\c6ccc(O)cc6)[C@@H]5CC[C@]43C)[C@@H]2[C@]1(C)O`, the result in data set [2] was inactive. The MNTC at 24 h in [3] and in data set [5] was 20 µg/mL throughout. Further, the Activity is reported as 100% in data set [4], 100% in data set [6], 0% in [9] and 0% in [10]. The CC50 in [7] was 50 µg/mL (≈ 76.8 µM).
As for `C[C@@H]1CC[C@]2(C(=O)O)CC[C@]3(C)C(=CC[C@@H]4[C@@]5(C)C[C@@H](O)[C@@H](O)C(C)(C)[C@@H]5CC[C@]43C)[C@@H]2[C@]1(C)O` [EUSCAPHIC ACID], the Activity is 0% in data set [11], 1% in [12], 100% in data set [13] and 100% in [6]. Further, the outcome in data set [2] was inactive. Moreover, the values for the MNTC at 24 h in data set [3] and in data set [5] were 50 µg/mL and 20 µg/mL, respectively. For the same compound, in data set [7], the CC50 is 20 µg/mL (≈ 40.9 µM).

(Values after ChEMBL document CHEMBL1149730, “Constituents of Eriobotrya japonica. A study of their antiviral properties” (J Nat Prod, 1992).)
